Data published in patent US11542471B2, “Method for producing ciliary marginal zone-like structure” (SUMITOMO CHEMICAL COMPANY, LIMITED, priority 2012, dated 2023).

System: cell aggregate containing a retinal tissue (RAX::GFP knock-in human ES cells, derived from KhES-1)
Experiment: Suspension culture of a human ES cell-derived cell aggregate containing retinal tissue in serum-free medium with a substance acting on the Wnt signal pathway; cryosection immunostaining
Format: cell-based
Details: 3 μM CHIR99021, serum-free medium, 3 days from day 18 of suspension culture
Method: The “proportion of Chx10 positive cells” in a retinal tissue contained in a cell aggregate produced as mentioned above can be examined by, for example, the following method. • (1) First, a cryosection of “a cell aggregate comprising a retinal tissue” is prepared. • (2) Then, immunostaining of Rax protein or, when a gene recombinant cell obtained by altering a Rax gene expressing cell to express a fluorescence protein such as GFP is used, the expression of the aforementioned fluorescence protein, is observed using a fluorescence microscope and so on, whereby a retinal tissue region expressing Rax gene is specified. • (3) Using the same section as the cryosection wherein the retinal tissue region expressing Rax gene has been specified or an adjacent section as a sample, the nucleus is stained with a nuclear staining reagent such as Dapi. Then, the number of stained nuclei in the above-specified retinal tissue region expressing Rax gene is counted, whereby the number of the cells in the retinal tissue region is measured. • (4) Using the same section as the cryosection wherein the retinal tissue region expressing Rax gene has been specified or an adjacent section as a sample, Chx10 protein is immunostained. […]

Compound: Cc1c[nH]c(-c2cnc(NCCNc3ccc(C#N)cn3)nc2-c2ccc(Cl)cc2Cl)n1 [CHIR99021]
- appearance of RPE65 gene expressing cell in the cell aggregate: did not appear
- proportion of Chx10 positive cells in the retinal tissue (about 40% before addition): about 3%
